Marks after values point to notes of the source that are not given here. *1 amine or outer side, *2 acyl side, *3 side chain or, on linkers, in order; H or OH if unused. Where no end group is shown, it is not given here. [ ]: non-standard residue; d: D form. The star is where a group is joined. aminoluciferin = O=C(O)[C@H]1CSC(c2nc3ccc(N*)cc3s2)=N1; AFC = O=c1cc(C(F)(F)F)c2ccc(N*)cc2o1; AMC = Cc1cc(=O)oc2cc(N*)ccc12; Suc = O=C(CCC(=O)[*:2])[*:1]; code Z = not defined here; Cbz = O=C(OCc1ccccc1)*
Key:
[1] = test system: untreated viable HL-60 or Jurkat cells; assay: Protease retention: substrate cleavage in untreated viable cells; format: cell-based; set-up: key: None denotes no statistical activity above control population.; (+) to (+++++) denotes the range of activity above control population from modest to robust; (+) to (+++++) denotes the range of activity above control population from modest to robust; (+) to (+++++) denotes the range of activity above control population from modest to robust; (+) to (+++++) denotes the range of activity above control population from modest to robust; (+) to (+++++) denotes the range of activity above control population from modest to robust; details: proteolytic activity on substrate in untreated viable HL-60 or Jurkat cells, above control population; 15-30 min 37° C.
Description: (§1) All substrates were solubilized in DMSO from 10 to 100 mM depending upon inherent solubility. Fluorescent substrates were diluted to 100 μM to 1 mM in 10 mM Hepes, pH 7.5 or matched cell culture medium with 10% serum and added in 1/10th volumes to lysed (freeze fractured, sonicated, or detergent) or untreated viable cells in white-walled, clear bottomed 96-well plates. HL-60 or Jurkat were used in the experimentation interchangeably because of their easily manipulated suspension phenotype. Plates were incubated for 15-30 minutes at 37° C. prior to measuring fluorescence by the CytoFluor II.
(§2) Luminescent substrates were added to a luciferin detection cake (Promega V859A) resuspended in 2 ml 10 mM Hepes, pH 7.5 to 500 μM. ⅕^th volume of the proluminescent reaction mixes were added to lysed (freeze fractured, sonicated, or detergent) or untreated viable cells in white-walled, clear bottomed 96-well plates. Again, HL-60 or Jurkat were used in the experimentation interchangeably. Plates were incubated at 37° C. in a MeCour' circulating heat block controlled by a Caron 2050 W exchange unit. Luminescence was measured between 15 and 30 minutes (signal steady state).
(§3) A broad variety of proteolytic substrates were examined in an effort to characterize potential substrate preferences for protease release or retention in compromised or viable cells (see Table 3). […] Non-blocked substrates (H- and the like) were examined to include the contribution of aminopeptidase activities. From this panel, at least three proteolytic profiles emerged: an aminopeptidase-like activity preferring unblocked Ala-Ala-Phe tripeptide, a proteosomal (chymotrypsin-like) activity measured by release of blocked Leu-Leu-Val-Tyr (SEQ ID NO:1) peptides, and an exceedingly labile activity by Gly-Phe, Gly-Ala, Phe-, Tyr- or Gly-Gly-Leu substrates. The latter activities were only measurable in viable, intact cells. Of further significance is that several fluorophores or proluminescent labels can be used to detect these activities, ultimately allowing for enhanced downstream multiplexing flexibility.

[2] = test system: lysed HL-60 or Jurkat cells; assay: Protease release: substrate cleavage in lysed (compromised) cells; format: cell-based; set-up: key: None denotes no statistical activity above control population.; (+) to (+++++) denotes the range of activity above control population from modest to robust; (+) to (+++++) denotes the range of activity above control population from modest to robust; (+) to (+++++) denotes the range of activity above control population from modest to robust; (+) to (+++++) denotes the range of activity above control population from modest to robust; (+) to (+++++) denotes the range of activity above control population from modest to robust; details: proteolytic activity on substrate in lysed (freeze fractured, sonicated or detergent) HL-60 or Jurkat cells, above control population; 15-30 min 37° C.
Description: as §1, §2, §3

[3] = test system: proteasome or luciferase activity in HL-60 cells; assay: Screen of cell membrane permeabilization reagents in cell-based luminescent proteasome reaction; details: 25,000 HL-60 cells, detergent 0.05 and 0.1% final, 22° C., LLVY-aminoluciferin
Description: FIGS. 10A-C. Screen for cell membrane permeabilization reagents suitable to detect proteasomes in a cell-based luminescent reaction.
Other permeabilizing agents were screened for those suitable to detect proteasome activity in a cell-based assay (FIGS. 10A-C). Reagents containing low concentrations of various detergents (0.05 and 0.1% final) were prepared. 100 μl/well samples containing 25,000 HL-60 cells in complete medium were added to a 96-well plate and equilibrated at 37° C. The plate and reagents were cooled to 22° C. and an equal volume of reagent was added to each sample. The plate was shaken for 1 minute, then incubated at 22° C. Luminescence was then determined over time.

[4] = test system: proteasome activity in HL-60 cells; assay: Cell-based luminescent proteasome assay in HL-60 cells; details: 1.5 hour treatment (FIG. 2B)
[5] = test system: ACHN cells; assay: Multiplexed protease retention (Gly-Phe-AFC) and Caspase-Glo 3/7 assay; format: cell-based; details: serial dilutions, 5 hours
Description: (§4) SK-MEL-28 or ACHN cells were seeded into white-walled, clear bottomed 96 well plates at a density of 10,000 cells per well in 100 μl volumes and allowed to attach at 37° C. in 5% CO2 for a period of 2 hours. After attachment, 50 μl of medium was carefully removed and replaced with serial dilutions of either ionomycin or staurosporine in MEM+10% FBS. Medium only served as control. The plate was incubated for an additional 5 hours. A 1 mM solution of Gly-Phe-AFC was made in MEM and added to the wells in a 1/10th volume. Resulting fluorescence was measured using a CytoFluor II. Caspase-Glo™ 3/7 reagent was then added and luminescence measure using a BMG FLUOstar Optima.

[6] = test system: SK-MEL-28 cells; assay: as above; format: cell-based; details: serial dilutions, 5 hours
Description: as §4

Compound | Retention [1] | Release [2] | further results
H-Gly-Ala-{AMC} | ++ | None | 
Tween®-20 |  |  | effect on proteasome or luciferase activity [3]: negative effects
Ac-Ala-Ala-Tyr-{AMC} | None | None | 
Ser-Tyr-{AFC} | None | None | 
Z-Leu-Arg-aminoluciferin [Z-Leu-Arg-Aluc] | None | None | 
CCCC[C@@H](C=O)NC(=O)[C@H](CC(C)C)NC(=O)OCc1ccccc1 [Calpeptin, calpeptin] |  |  | effect on proteasome activity [4]: minimal effect
Z-Leu-Arg-Gly-Gly-AMC (LRGG; Z N-terminal, AMC C-terminal) | None | None | 
Cc1cc(=O)oc2cc(NC(=O)[C@@H](N)Cc3ccc(O)cc3)ccc12 [H-Tyr-AMC] | ++ | None | 
Ala-Ala-Phe-aminoluciferin | None | ++++ | 
Cc1cc(=O)oc2cc(NC(=O)[C@@H](N)Cc3ccccc3)ccc12 [H-Phe-AMC] | +++ | None | 
Suc-Leu-Leu-Val-Tyr-AMC (Suc-LLVY-{AMC}; SMILES Cc1cc(=O)oc2cc(NC(=O)[C@H](Cc3ccc(O)cc3)NC(=O)[C@@H](NC(=O)[C@H](CC(C)C)NC(=O)[C@H](CC(C)C)NC(=O)CCC(=O)O)C(C)C)ccc12) | None | + | 
H-Gly-Phe-{AMC} | ++ | None | 
H-Gly-Gly-{AMC} | None | None | 
Cbz-Phe-Arg-{AMC} | None^1 | None | 
CCCCCCCCCCCCOS(=O)(=O)[O-].[Na+] [SDS] |  |  | effect on proteasome or luciferase activity [3]: negative effects
Suc-Ala-Ala-Phe-{AMC} | None | None | 
Tergitol® NP-9 |  |  | effect on proteasome or luciferase activity [3]: did not substantially effect

Compound | Retention [1] | Release [2] | further results
Glutyl-Ala-Ala-Phe-AMC [Gluty-Ala-Ala-Phe-AMC] | None | None | 
Suc-Arg-Pro-Phe-His-Leu-Leu-Val-Tyr-AMC (Suc-RPFHLLVY-{AMC}; SMILES Cc1cc(=O)oc2cc(NC(=O)[C@H](Cc3ccc(O)cc3)NC(=O)[C@@H](NC(=O)[C@H](CC(C)C)NC(=O)[C@H](CC(C)C)NC(=O)[C@H](Cc3c[nH]cn3)NC(=O)[C@H](Cc3ccccc3)NC(=O)[C@@H]3CCCN3C(=O)[C@H](CCCNC(=N)N)NC(=O)CCC(=O)O)C(C)C)ccc12) [S-R-P-F-H-L-L-V-Y-AMC] | None | None | 
C[C@H](CCC(=O)NCCC[N+](C)(C)CCCS(=O)(=O)[O-])[C@H]1CC[C@H]2[C@@H]3[C@H](O)C[C@@H]4C[C@H](O)CC[C@]4(C)[C@H]3C[C@H](O)[C@]12C [CHAPS] |  |  | effect on proteasome or luciferase activity [3]: negative effects
Ala-Ala-Phe-{AMC} | None | ++++ | 
Cbz-Gly-Gly-Leu-{AMC} | ++* | None | 
(Gly-Phe)2-R110 [(Gly-Phe)2 R110] | None | None | 
CN[C@@H]1C[C@H]2O[C@@](C)([C@@H]1OC)n1c3ccccc3c3c4c(c5c6ccccc6n2c5c31)C(=O)NC4 [staurosporine] |  |  | cytotoxicity profile (protease retention viability and caspase 3/7 activity) [5]: apoptotic profile; cytotoxicity profile (protease retention viability and caspase 3/7 activity) [6]: caspase activation (and therefore apoptosis induction) is evident
Cbz-Gly-Ala-Met-{AMC} | None | None | 
C[C@H](CCC(=O)O)C[C@H](C)C[C@H](C)C(=O)/C=C(\O)[C@H](C)C[C@H](C)C/C=C/[C@@H](C)[C@@H](O)[C@@H](C)[C@@H](O)C[C@@H]1CC[C@@](C)([C@H]2CC[C@@](C)([C@@H](C)O)O2)O1 [ionomycin] |  |  | cytotoxicity profile (protease retention viability and caspase 3/7 activity) [6]: necrotic-type profile
Z-Leu-Leu-Val-Tyr-aminoluciferin ({code Z}-LLVY-aminoluciferin; reading uncertain; also: printed as Z-Leu-Leu-Val-Tyr-aminoluciferin) [Z-Leu-Leu-Val-Tyr-Aluc] | None | ++ | 
Gly-Phe-{AFC} | ++++ | None | 
Triton X-100 |  |  | effect on proteasome or luciferase activity [3]: did not substantially effect
H-[dA]-Leu-Lys-{AMC} | None | None | 
(Ala-Ala-Phe)2-R110 [(Ala-Ala-Phe) 2 R110] | None | ++++ | 
Z-Arg-Leu-Arg-Gly-Gly-AMC (RLRGG; Z N-terminal, AMC C-terminal) | None | None | 
H-Pro-Phe-Arg-{AMC} | None | None | 
Z-Phe-Arg-aminoluciferin [Z-Phe-Arg-Aluc] | None | None | 

From US20070048812A1, “Cell-based luminogenic and nonluminogenic proteasome assays” (priority 2005, published 2007)
